Experimental data: article PMC11928584, “H105A peptide eye drops promote photoreceptor survival in murine and human models of retinal degeneration” (Communications Medicine, 2025)
“And” between values parts separate entries of the source, which are not always exact repeats. Identical values can stand only once. Where a SMILES comes first, the peptide text is derived from it.

Legend:
[1] = test system: human iPSC-derived retinal organoids exposed to CSE; assay: TUNEL staining of retinal organoid sections; format: cell-based; details: Figure 8f, individual values, n=5
Description: Human iPSCs were differentiated into retinal organoids (ROs) following the protocol by Zhong et al.[41]. Briefly, on Day 0, hiPSC colonies were dissociated with dispase and grown in a suspension to form embryoid bodies, and slowly transitioned to neural induction media (DMEM/F12 (1:1), 1% N2 supplement (Invitrogen), 1 x minimum essential media-nonessential amino acids (NEAAs), 2 µg/ml heparin (Sigma)). On Day 7, EBs were seeded on Matrigel coated plates and maintained in neural induction media. On Day 16, the media was switched to the retinal differentiation medium (DMEM/F12 (3:1), 2% B27 (without vitamin A, Invitrogen), 1x NEAA and 1% antibiotic–antimycotic (Gibco)). Retinal domains were identified and lifted manually with tungsten needles between Day 21 and Day 26 under a phase contrast microscope. On day 30, the culture medium was transitioned to DMEM/F12 (3:1) with 2% B27, 1x NEAA, 1% antibiotic–antimycotic, 10% fetal bovine serum (FBS; Gibco), […] Taurine (Sigma), and 2 mM GlutaMAX (Invitrogen). Additionally, 1 µM retinoic acid supplement was introduced daily starting from day 63. On day 91, the medium was modified to DMEM/F12 (1:1) supplemented with 1% N2, 1 x NEAAs, 1% antibiotic–antimycotic, 10% FBS, […] Taurine and 2 mM GlutaMAX, and the concentration of retinoic acid supplementation was reduced to 0.5 µM for the remainder of the culture period. The use of hiPSCs in this study conforms to the University of Colorado Institutional Biosafety Committee standards. […]
D180 ROs were treated with each of the 5 experimental conditions, as described above (n = 5 for each condition), washed with PBS three times, and fixed with 4% paraformaldehyde for 10 min at room temperature. […] Fluorescence images were acquired with a Nikon C2 Confocal Microscope A1 (Minato City, Tokyo, Japan) and stitched together using Nikon Elements Software. Images were analysed with Fiji. The relative area of positive immunostaining was calculated as a percentage of total retinal area. […]

[2] = Fluorescence distribution of labeled peptides in retinal cross-sections; format: in vivo, C57BL/6J mice; details: Alexa Fluor 488-labeled peptide, eye drops, retinal cross-sections 1 h post-administration
Description: Fig. 1 Penetration and bioavailability of PEDF Peptides 17-mer, H105A, and R99A Delivered via Eye Drops in Mouse Retinas. a Peptide mapping and sequence. Tertiary structure of human PEDF highlighting the small peptide region with neurotrophic activity (17-mer) in blue (top). Primary structure of human PEDF showing the location of the 17-mer region (middle). Sequences of the 17-mer peptide and its variants, H105A and R99A (bottom). b In vivo detection of peptides. Fundus micrographs showing fluorescence from Alexa Fluor 488-labeled 17-mer, H105A, and R99A peptides in the eyes of C57BL/6J mice at P21 days after eye drop administration of 5 µl of peptide at 1 mg/ml (left). Fundus images were taken at 1, 3-, 6-, 24-, and 48 h post-administration. Quantification of fluorescence intensity over time post-administration (right). […] The amount of peptide was quantified from the fluorescence in retinal extracts using standard curves (Supplementary Fig. 1a). Each data point represents the amount of each peptide per eye with three eyes (n = 3) per time point. d Retinal cross-sections showing fluorescence distribution in the photoreceptor layer 1 h after applying eye drops as in Panel B. Representative images for labeled 17-mer, H105A, and R99A peptides are shown, with magnified areas of 17-mer and H105A indicated by dotted rectangles. […]

| SMILES | Relative TUNEL(+) area ([1]; CSE + peptide 1nM) | Relative TUNEL(+) area ([1]; CSE + peptide 20nM) | distribution of labeled peptide in photoreceptor layer [2] |
| --- | --- | --- | --- |
| CC[C@H](C)[C@H](NC(=O)[C@H](CC(C)C)NC(=O)[C@H](CC(=O)O)NC(=O)[C@H](Cc1ccc(O)cc1)NC(=O)[C@H](Cc1ccc(O)cc1)NC(=O)[C@H](CC(C)C)NC(=O)[C@H](C)NC(=O)[C@H](CCCNC(=N)N)NC(=O)[C@H](C)NC(=O)[C@@H](NC(=O)[C@@H](NC(=O)[C@H](CO)NC(=O)[C@H](CCC(=O)O)NC(=O)[C@@H](NC(=O)[C@H](CCCNC(=N)N)NC(=O)[C@@H](N)CCC(N)=O)[C@@H](C)O)[C@@H](C)CC)[C@@H](C)CC)C(=O)N[C@@H](CO)C(=O)O [H150A] (H-QRTESIIARALYYDLIS-OH) | 2.16 and 2.78 and 3.68 and 2.70 and 2.54 | 1.75 and 2.66 and 2.53 and 2.94 and 1.87 | – |
| CC[C@H](C)[C@H](NC(=O)[C@H](CC(C)C)NC(=O)[C@H](CC(=O)O)NC(=O)[C@H](Cc1ccc(O)cc1)NC(=O)[C@H](Cc1ccc(O)cc1)NC(=O)[C@H](CC(C)C)NC(=O)[C@H](C)NC(=O)[C@H](CCCNC(=N)N)NC(=O)[C@H](Cc1c[nH]cn1)NC(=O)[C@@H](NC(=O)[C@@H](NC(=O)[C@H](CO)NC(=O)[C@H](CCC(=O)O)NC(=O)[C@@H](NC(=O)[C@H](CCCNC(=N)N)NC(=O)[C@@H](N)CCC(N)=O)[C@@H](C)O)[C@@H](C)CC)[C@@H](C)CC)C(=O)N[C@@H](CO)C(=O)O [17-mer] (H-QRTESIIHRALYYDLIS-OH) | – | – | decorated the OS in a punctuated fashion |
